In PubChem BioAssay (NCI):
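At the GI50, growth is halved. TGI: total growth inhibition.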

Columns and labels:
Test in all cases: NCI anticancer screen, dose series, 384-well format
HOP-62 NSCLC = system: HOP-62 NSCLC
DU-145 prostate = system: DU-145 prostate
HL-60(TB) leukemia = system: HL-60(TB) leukemia
HT29 colon = system: HT29 colon
SF-295 CNS = system: SF-295 CNS
NCI-H322M lung = system: NCI-H322M lung
SK-MEL-5 melanoma = system: SK-MEL-5 melanoma
A549 NSCLC = system: A549 NSCLC
UACC-257 melanoma = system: UACC-257 melanoma
PC-3 prostate = system: PC-3 prostate
SW-620 colon = system: SW-620 colon
SN12C renal = system: SN12C renal
UO-31 renal = system: UO-31 renal
KM12 colon = system: KM12 colon
CAKI-1 renal = system: CAKI-1 renal
A498 renal = system: A498 renal
MDA-MB-231 breast = system: MDA-MB-231 breast
OVCAR-4 ovarian = system: OVCAR-4 ovarian
IGROV1 ovarian = system: IGROV1 ovarian
MALME-3M melanoma = system: MALME-3M melanoma
SF-268 CNS = system: SF-268 CNS
SK-MEL-28 melanoma = system: SK-MEL-28 melanoma
U251 glioblastoma = system: U251 glioblastoma
RPMI-8226 leukemia = system: RPMI-8226 leukemia
MDA-MB-468 breast = system: MDA-MB-468 breast
EKVX NSCLC = system: EKVX NSCLC
NCI-H522 lung = system: NCI-H522 lung
OVCAR-5 ovarian = system: OVCAR-5 ovarian
T-47D breast = system: T-47D breast
SR leukemia = system: SR leukemia
NCI-H23 lung = system: NCI-H23 lung
NCI-H226 lung = system: NCI-H226 lung
NCI/ADR-RES ovarian = system: NCI/ADR-RES ovarian
SNB-19 CNS = system: SNB-19 CNS
BT-549 breast = system: BT-549 breast
UACC-62 melanoma = system: UACC-62 melanoma
RXF 393 renal = system: RXF 393 renal
K-562 leukemia = system: K-562 leukemia
SK-OV-3 ovarian = system: SK-OV-3 ovarian
LOX IMVI melanoma = system: LOX IMVI melanoma
MCF7 breast = system: MCF7 breast
TK-10 renal = system: TK-10 renal
SNB-75 CNS = system: SNB-75 CNS
ACHN renal = system: ACHN renal
SF-539 CNS = system: SF-539 CNS
HCT-116 colon = system: HCT-116 colon
MOLT-4 leukemia = system: MOLT-4 leukemia
COLO 205 colon = system: COLO 205 colon
NCI-H460 NSCLC = system: NCI-H460 NSCLC
M14 melanoma = system: M14 melanoma
SK-MEL-2 melanoma = system: SK-MEL-2 melanoma
HCC-2998 colon = system: HCC-2998 colon
OVCAR-3 ovarian = system: OVCAR-3 ovarian
CCRF-CEM leukemia = system: CCRF-CEM leukemia
HCT-15 colon = system: HCT-15 colon
HOP-92 NSCLC = system: HOP-92 NSCLC
HS 578T breast = system: HS 578T breast
786-0 renal = system: 786-0 renal
MDA-MB-435 melanoma = system: MDA-MB-435 melanoma

Cc1cc(Nc2nc(N[C@@H](C)c3ncc(F)cn3)ncc2Cl)n[nH]1
GI50 (HOP-62 NSCLC): 39.1 µM | TGI (HOP-62 NSCLC): > 100 µM | GI50 (DU-145 prostate): 37.1 µM | TGI (DU-145 prostate): > 100 µM | GI50 (HL-60(TB) leukemia): 16 µM | TGI (HL-60(TB) leukemia): 31 µM | GI50 (HT29 colon): 27.4 µM | TGI (HT29 colon): > 100 µM | GI50 (SF-295 CNS): 47.4 µM | TGI (SF-295 CNS): > 100 µM | GI50 (NCI-H322M lung): 42.6 µM | TGI (NCI-H322M lung): > 100 µM | GI50 (SK-MEL-5 melanoma): 30.5 µM | TGI (SK-MEL-5 melanoma): > 100 µM | GI50 (A549 NSCLC): 30.4 µM | TGI (A549 NSCLC): > 100 µM | GI50 (UACC-257 melanoma): > 100 µM | TGI (UACC-257 melanoma): > 100 µM | GI50 (PC-3 prostate): 42.1 µM | TGI (PC-3 prostate): > 100 µM | GI50 (SW-620 colon): 24.3 µM | TGI (SW-620 colon): 91.3 µM | GI50 (SN12C renal): 31.3 µM | TGI (SN12C renal): > 100 µM | GI50 (UO-31 renal): 36.7 µM | TGI (UO-31 renal): > 100 µM | GI50 (KM12 colon): 0.381 µM | TGI (KM12 colon): > 100 µM | GI50 (CAKI-1 renal): 23.7 µM | TGI (CAKI-1 renal): > 100 µM | GI50 (A498 renal): 35.8 µM | TGI (A498 renal): > 100 µM | GI50 (MDA-MB-231 breast): 27.5 µM | TGI (MDA-MB-231 breast): > 100 µM | GI50 (OVCAR-4 ovarian): 77.8 µM | TGI (OVCAR-4 ovarian): > 100 µM | GI50 (IGROV1 ovarian): 27.8 µM | TGI (IGROV1 ovarian): > 100 µM | GI50 (MALME-3M melanoma): 52.8 µM | TGI (MALME-3M melanoma): > 100 µM | GI50 (SF-268 CNS): 18.4 µM | TGI (SF-268 CNS): 63.4 µM | GI50 (SK-MEL-28 melanoma): 59.1 µM | TGI (SK-MEL-28 melanoma): > 100 µM | GI50 (U251 glioblastoma): 32.1 µM | TGI (U251 glioblastoma): > 100 µM | GI50 (RPMI-8226 leukemia): 18.4 µM | TGI (RPMI-8226 leukemia): 73 µM | GI50 (MDA-MB-468 breast): 17.3 µM | TGI (MDA-MB-468 breast): 33.1 µM | GI50 (EKVX NSCLC): 23.9 µM | TGI (EKVX NSCLC): 79.3 µM | GI50 (NCI-H522 lung): 4.66 µM | TGI (NCI-H522 lung): 28.5 µM | GI50 (OVCAR-5 ovarian): 45.1 µM | TGI (OVCAR-5 ovarian): > 100 µM | GI50 (T-47D breast): 29.8 µM | TGI (T-47D breast): > 100 µM | GI50 (SR leukemia): 5.01 µM | TGI (SR leukemia): 12.2 µM | GI50 (NCI-H23 lung): 35.2 µM | TGI (NCI-H23 lung): > 100 µM | GI50 (NCI-H226 lung): 12 µM | TGI (NCI-H226 lung): > 100 µM | GI50 (NCI/ADR-RES ovarian): 20.2 µM | TGI (NCI/ADR-RES ovarian): 60.4 µM | GI50 (SNB-19 CNS): 47.5 µM | TGI (SNB-19 CNS): > 100 µM | GI50 (BT-549 breast): 20.7 µM | TGI (BT-549 breast): 78.1 µM | GI50 (UACC-62 melanoma): 40.7 µM | TGI (UACC-62 melanoma): > 100 µM | GI50 (RXF 393 renal): 18.9 µM | TGI (RXF 393 renal): 46 µM | GI50 (K-562 leukemia): 27.9 µM | TGI (K-562 leukemia): > 100 µM | GI50 (SK-OV-3 ovarian): 18.6 µM | TGI (SK-OV-3 ovarian): 78.1 µM | GI50 (LOX IMVI melanoma): 27.6 µM | TGI (LOX IMVI melanoma): 71 µM | GI50 (MCF7 breast): 44.3 µM | TGI (MCF7 breast): > 100 µM | GI50 (TK-10 renal): 34.6 µM | TGI (TK-10 renal): > 100 µM | GI50 (SNB-75 CNS): 8.7 µM | TGI (SNB-75 CNS): 27.9 µM | GI50 (ACHN renal): 31.2 µM | TGI (ACHN renal): > 100 µM | GI50 (SF-539 CNS): 14 µM | TGI (SF-539 CNS): 34.1 µM | GI50 (HCT-116 colon): 17.4 µM | TGI (HCT-116 colon): > 100 µM | GI50 (MOLT-4 leukemia): 16.7 µM | TGI (MOLT-4 leukemia): 33.8 µM | GI50 (COLO 205 colon): 41 µM | TGI (COLO 205 colon): > 100 µM | GI50 (NCI-H460 NSCLC): 21.5 µM | TGI (NCI-H460 NSCLC): > 100 µM | GI50 (M14 melanoma): 61.7 µM | TGI (M14 melanoma): > 100 µM | GI50 (SK-MEL-2 melanoma): 44.7 µM | TGI (SK-MEL-2 melanoma): 85.1 µM | GI50 (HCC-2998 colon): 28.3 µM | TGI (HCC-2998 colon): > 100 µM | GI50 (OVCAR-3 ovarian): 43.8 µM | TGI (OVCAR-3 ovarian): > 100 µM | GI50 (CCRF-CEM leukemia): 20.7 µM | TGI (CCRF-CEM leukemia): 45.1 µM | GI50 (HCT-15 colon): 26.4 µM | TGI (HCT-15 colon): > 100 µM | GI50 (HOP-92 NSCLC): 27.8 µM | TGI (HOP-92 NSCLC): 91.3 µM | GI50 (HS 578T breast): 11.6 µM | TGI (HS 578T breast): 29.9 µM | GI50 ([…]-0 renal): 33.6 µM | TGI (786-0 renal): > 100 µM | GI50 (MDA-MB-435 melanoma): 17.1 µM | TGI (MDA-MB-435 melanoma): > 100 µM
